# Experimental data reported in US20110045100A1, “Antimalarial Quinolines and Methods of Use Thereof” (GEORGETOWN UNIVERSITY, priority 2008, published 2011).
# Where two headings read alike, the source gives them in different places.
# Columns and labels:
# monomeric heme = assay: Heme affinity measurement, monomeric heme; type: binding; details: acidic 40% DMSO
# Description: To test whether binding to Hz precursors is also altered for the 4S and 4O derivatives, binding constants were measured as previously described for both μ-oxo dimeric and monomeric heme (FIG. 25). […] J. Am. Chem. Soc. 1988, 110, 4391-4395; Egan, T. J.; Mavuso, W. W.; Ross, D. C.; Marques, H. M. Thermodynamic factors controlling the interaction of quinoline antimalarial drugs with ferriprotoporphyrin IX. J. Inorg. Biochem. 1997, 68, 137-145; and Egan, T. J.; Ncokazi, K. K. Effects of solvent composition and ionic strength on the interaction of quinoline antimalarials with ferriprotoporphyrin IX. J. Inorg. Biochem. 2004, 98, 144-152. Due to the instability of monomeric heme in aqueous solution, the affinity to monomer measured by conventional absorbance experiments can only be estimated using 40% DMSO in water as solvent. Egan, T. J.; Ncokazi, K. K. Effects of solvent composition and ionic strength on the interaction of quinoline antimalarials with ferriprotoporphyrin IX. J. Inorg. Biochem. 2004, 98, 144-152. At appropriately acidic solution pH (≦5.0) FPIX heme is primarily monomeric, whereas at pH 7, appreciable dimer is formed. As shown (FIG. 25), CQ and compounds 88, 93, and 98 all have poor affinity for monomeric heme in acidic 40% DMSO. To further test if CQ interacts with monomeric heme, T1 measurements of the CQ protons were made with samples containing 10 mM CQ and 2 mM hemin chloride in 40% DMSO at pH 5.0. Although the lines are broadened in this solution due to paramagnetic susceptibility, the measured T1's indicate only weak paramagnetic relaxation. For example, the measured T1 for CQ proton 1 in this sample is 0.70 s, whereas at pH 7.0 the T1 for the same proton is 0.039 s.
# To measure affinity for monomeric heme, 1.2 mM stock solutions of hemin (sodium salt from Sigma-Aldrich) were prepared in DMSO and stored as […] aliquots. 4.8 μM working solutions were prepared in 40% DMSO/phosphate buffer (fresh stocks prepared daily). Stock solutions of CQ and CQ analogues (diphosphate or dihydrochloride salts) were prepared in 40% DMSO/phosphate buffer and used for the titration experiments (all drugs dilutions were prepared in the same buffer).
# 1.5 mL cuvettes containing freshly prepared samples of 4.8 μM heme were titrated with increasing concentrations (0-50 μM) of drug. Following each addition, the sample was mixed and heme absorbance then recorded at 402 nm. Control experiments were performed by titrating 4.8 μM heme with similar volumes of solvent and no drug present. […] The absorbance peak analysis was done using Microsoft excel and Ka were extracted from the ΔAbs402 plots via Scatchard analysis using Microsoft Excel and Sigma plot 9.0.1 software.
# [1] = system: Dd2 (chloroquine resistant strain of P. falciparum); assay: SYBR Green I antiplasmodial assay, strain Dd2; type: cell-based, Plasmodium falciparum
# Excerpt: (§1) Bennett T. N.; Paguio, M.; Gligorijevic, B.; Seudieu, C.; Kosar, A. D.; Davidson, E.; Roepe, P. D. Novel, rapid, and inexpensive cell-based quantification of antimalarial drug efficacy. Antimicrob. Agents Chemother. 2004, 48, 1807-1810; Smilkstein, M.; Sriwilaijaroen, N.; Kelly, J. X.; Wilairat, P.; Riscoe, M. Simple and inexpensive fluorescence-based technique for high-throughput antimalarial drug screening. Antimicrob. Agents Chemother. 2004, 48, 1803-1806; and Johnson, J. D.; Dennull, R. A.; Gerena, L.; Lopez-Sanchez, M.; Roncal, N. E.; Waters, N.C. Assessment and continued validation of the malaria SYBR green I-based fluorescence assay for use in malaria drug screening. Antimicrob. Agents Chemother. 2007, 51, 1926-1933. […] Drake, N. L.; Creech, H. J.; Garman, J. A.; Haywood, S. T.; Peck, R. M.; van Hook, J. O.; Walton, E. Synthetic antimalrials. The preparation of certain 4-aminoquinolines. J. Am. Chem. Soc. […] Trans. R. Soc. Trop. Med. Hyg. […] J. Parasitol. 1983, 69, 97-105. The selectivity index provides a quantitative measure of the antimalarial activity against CQR strains relative to that against sensitive strains and thus indicates promising drug discovery leads. […] This can be combined with the introduction of a third basic amino function which should further favor accumulation of the drug within the acidic food vacuole of the parasite.
# The antiplasmodial activity of these compounds was measured versus a CQS (HB3) and a CQR (Dd2) strain using a standardized, inexpensive assay based on SYBR Green I intercalation. Bennett T. N.; Paguio, M.; Gligorijevic, B.; Seudieu, C.; Kosar, A. D.; Davidson, E.; Roepe, P. D. Antimicrob. Agents Chemother. 2004, 48, 1807-1810; Smilkstein, M.; Sriwilaijaroen, N.; Kelly, J. X.; Wilairat, P.; Riscoe, M. Antimicrob. Agents Chemother. 2004, 48, 1803-1806; and Johnson, J. D.; Dennull, R. A.; Gerena, L.; Lopez-Sanchez, M.; Roncal, N. E.; Waters, N.C. Antimicrob. Agents Chemother. 2007, 51, 1926-1933. […] De, D.; Krogstad, F. M.; Cogswell, F. B.; Krogstad, D. J. Am. J. Trop. Med. Hyg. 1996, 55, 579-583. […] The basic tertiary amino function in the side chain is commonly believed to be crucial for the accumulation of the drug within the acidic food DV.
# (§2) Drug activities were assessed and IC50 were quantified essentially as described previously. Delarue, S.; Girault, S.; Maes, L.; Debreu-Fontaine, M. A.; Labaeid, M.; Grellier, P.; Sergheraert, C. Synthesis and in vitro and in vivo antimalarial activity of new 4-anilinoquinolines. J. Med. Chem. 2001, 44, 2827-2833; and O'Neill, P. M.; Willock, D. J.; Hawley, S. R.; Bray, P. G.; Storr, R. C.; Ward, S. A.; Park, B. K. Synthesis, antimalarial activity, and molecular modeling of tebuquine analogues. J. Med. Chem. 1997, 40, 437-448. The aminoquinolines were diluted using complete media under sterile conditions and plated in a 96 well plate format. Sorbitol synchronized cultures were utilized with >95% of the parasites at the ring stage. Cultures were diluted to give a working stock of 0.5% parasitemia and 2% hematocrit (final hematocrit 1% & 0.5% Parasitemia). The plates were incubated for 72 h at 37° C. After 72 h, 50 μL of 10×SYBR green I dye was added to each well, and the plate was incubated for 1 h at 37° C. Fluorescence was measured at 530 nm (490 nm excitation) using a spectra geminiEM plate reader. Data analysis was performed using sigma plot 9.0 software after downloading data in Excel format.
# [2] = system: FCB (CQR strain of P. falciparum); assay: SYBR Green I antiplasmodial assay, strain FCB; type: cell-based, Plasmodium falciparum; details: Plasmodium falciparum, read-out: IC50 for FCB
# Excerpt: as §1, §2
# [3] = system: HB3 (chloroquine sensitive strain of P. falciparum); assay: SYBR Green I antiplasmodial assay, strain HB3; type: cell-based, Plasmodium falciparum; details: CQS strain HB3; read-out: IC50 against HB3
# Excerpt: Bennett T. N.; Paguio, M.; Gligorijevic, B.; Seudieu, C.; Kosar, A. D.; Davidson, E.; Roepe, P. D. Novel, rapid, and inexpensive cell-based quantification of antimalarial drug efficacy. Antimicrob. Agents Chemother. 2004, 48, 1807-1810; Smilkstein, M.; Sriwilaijaroen, N.; Kelly, J. X.; Wilairat, P.; Riscoe, M. Simple and inexpensive fluorescence-based technique for high-throughput antimalarial drug screening. Antimicrob. Agents Chemother. 2004, 48, 1803-1806; and Johnson, J. D.; Dennull, R. A.; Gerena, L.; Lopez-Sanchez, M.; Roncal, N. E.; Waters, N.C. Assessment and continued validation of the malaria SYBR green I-based fluorescence assay for use in malaria drug screening. Antimicrob. Agents Chemother. 2007, 51, 1926-1933. […] The selectivity index provides a quantitative measure of the antimalarial activity against CQR strains relative to that against sensitive strains and thus indicates promising drug discovery leads. […]
# The antiplasmodial activity of these compounds was measured versus a CQS (HB3) and a CQR (Dd2) strain using a standardized, inexpensive assay based on SYBR Green I intercalation. […]
# Drug activities were assessed and IC50 were quantified essentially as described previously. […] Fluorescence was measured at 530 nm (490 nm excitation) using a spectra geminiEM plate reader. […]
# μ-oxo dimeric heme = assay: Heme affinity measurement, μ-oxo dimeric heme; type: binding; details: aqueous solution
# Description: 1.5 mL cuvettes containing freshly prepared samples of 4.8 μM heme were titrated with increasing concentrations (0-50 μM) of drug. Following each addition, the sample was mixed and heme absorbance then recorded at 402 nm. Control experiments were performed by titrating 4.8 μM heme with similar volumes of solvent and no drug present. To measure affinity for μ-oxo dimeric heme, the procedure was similar except hemin was first converted to dimeric form in mild alkaline solution, followed by titration to pH 7.5 using Hepes buffer. The absorbance peak analysis was done using Microsoft excel and Ka were extracted from the ΔAbs402 plots via Scatchard analysis using Microsoft Excel and Sigma plot 9.0.1 software.
# hemozoin (Hz) formation = assay: Quantification of in vitro Hz formation inhibition; type: biochemical
# Description: A stock solution of 5 mM hemin (Fluka) in 0.1M NaOH was prepared and stored as small aliquots at -20° C. Fresh aliquots were thawed daily to room temperature before use. Lecithin stock solutions were prepared by dissolving in distilled water to 10 mg/ml and similarly stored. 0.5 M propionate was used to buffer experiments in the pH range 5.2-5.6. The assay mixture (1 mL volumes) contained: 200 μL lecithin solution ([…] final) 20 μL hematin (100 μM final concentration) 20 μ[…] propionate buffer (X) μL drug (dependant on the concentration required 0-1000 μM). The addition sequence involved first adding the lecithin followed by heme, HCl, propionate buffer and finally the drug. Each sample was prepared in triplicate. Following addition of the reagents the samples were incubated at 37° C. with constant shaking for 18 h. After 18 h the assay was stopped by spinning the samples at 13,200 rpm for 10 minutes followed by carefully aspirating off the supernatant. The pellet was then resuspended in 50 mM bicarbonate buffer pH 9.0 (1 mL) and gently shaken at room temperature for 30 minutes to dissolve uncrystallized heme. The samples were then centrifuged as above and the supernatant removed. […] The samples were then dissolved in 0.1M NaOH to solubilize β-hematin to free heme and β-hematin formed was then quantified via heme absorbance at 402 nm. Calibration curves were prepared by titrating increasing amounts of heme in the same solvent vs. absorbance at 402 nm.
# [4] = pKa determination by acid/base titration; type: physicochemical; details: distilled water; measured; read-out: quinolyl N pKa
# Description: SPARC pKa calculator is an online tool developed at the University of Georgia by S. W. Karickhoff, L. A. Carreira and S. H. Hilal. Experimental pKa were determined using an Accumet AB15 pH meter and a calomel electrode. 10 mM solutions of the drugs (as dibasic salts) were made in distilled H2O and titrated at room temperature (23.0±2.0° C.) using 0.1 M NaOH. Titration plots were generated and pKa's extracted via inflection points from the second derivative plots; (Δ^2pH/ΔV^2) vs. V, where V represents the volume of the titrant added and ΔV is the volume increment.
# [5] = system: CQS (HB3, GCO3) and CQR (Dd2, FCB) strains of P. falciparum; assay: SYBR Green I antiplasmodial assay, several CQS and CQR strains; type: cell-based, Plasmodium falciparum
# Excerpt: as §1
# Bennett T. N.; Paguio, M.; Gligorijevic, B.; Seudieu, C.; Kosar, A. D.; Davidson, E.; Roepe, P. D. Novel, rapid, and inexpensive cell-based quantification of antimalarial drug efficacy. Antimicrob. Agents Chemother. 2004, 48, 1807-1810; Smilkstein, M.; Sriwilaijaroen, N.; Kelly, J. X.; Wilairat, P.; Riscoe, M. Simple and inexpensive fluorescence-based technique for high-throughput antimalarial drug screening. Antimicrob. Agents Chemother. 2004, 48, 1803-1806; and Johnson, J. D.; Dennull, R. A.; Gerena, L.; Lopez-Sanchez, M.; Roncal, N. E.; Waters, N.C. Assessment and continued validation of the malaria SYBR green I-based fluorescence assay for use in malaria drug screening. Antimicrob. Agents Chemother. 2007, 51, 1926-1933.
# Drug activities were assessed and IC50 were quantified essentially as described previously. Delarue, S.; Girault, S.; Maes, L.; Debreu-Fontaine, M. A.; Labaeid, M.; Grellier, P.; Sergheraert, C. Synthesis and in vitro and in vivo antimalarial activity of new 4-anilinoquinolines. J. Med. Chem. 2001, 44, 2827-2833; and O'Neill, P. M.; Willock, D. J.; Hawley, S. R.; Bray, P. G.; Storr, R. C.; Ward, S. A.; Park, B. K. Synthesis, antimalarial activity, and molecular modeling of tebuquine analogues. J. Med. Chem. 1997, 40, 437-448.
smiles,measurement,setting,value
"CCN(CC)CCCC(C)Nc1ccnc2cc(Cl)ccc12 (stereo not drawn) [CQ, chloroquine, reference compound]",affinity for monomeric heme,monomeric heme,poor affinity
same,IC50,"[1]; Plasmodium falciparum, DD2, read-out: IC50 against Dd2",140 nM
same,IC50,[2],170 nM
CCN(CCNc1ccnc2cc(Cl)ccc12)CCNS(=O)(=O)c1cccc2c(N(C)C)cccc12 [compound 23],IC50,[3],17.5 nM
same,IC50,"[1]; CQR strain Dd2, read-out: IC50 against Dd2",22.7 nM
same,activity against the CQ resistant strain Dd2 in comparison with CQ,[1]; compared with CQ,significantly more potent
"CCN(CC)CCCCNc1ccnc2cc(Cl)ccc12 [compound 88, N-(7-Chloro-4-quinolyl)-N′,N′-diethyl-1,4-diaminobutane]",affinity for monomeric heme,monomeric heme,poor affinity
same,affinity (association constant Ka) vs. μ-oxo dimer,μ-oxo dimeric heme,quite similar
"CCN(CC)CCCCSc1ccnc2cc(Cl)ccc12 [compound 98, S-(7-Chloro-4-quinolyl)-4-(N,N-diethylamino)butanethiol]",affinity for monomeric heme,monomeric heme,poor affinity
same,affinity (association constant Ka) vs. μ-oxo dimer,μ-oxo dimeric heme,quite similar
same,ability to inhibit Hz formation vs. that measured for CQ and 8,hemozoin (Hz) formation; FIG. 26,significantly lower
same,pKa,[4],4.1
"CCN(CC)CCCC(CCCN(CC)CC)Oc1ccnc2cc(Cl)ccc12 [compound 102, 7-Chloro-4-(1′,7′-bis(diethylamino)-4′-heptoxy)quinoline]",inhibition of Hz formation relative to monobasic 4O derivative 13,hemozoin (Hz) formation,more potent inhibitor of Hz formation
same,activity vs. both CQR and CQS strains relative to 93,[5]; FIG. 23,improved activity
same,fold lower IC50 relative to 98,[5]; strains Dd2 and FCB,10 fold
